Results published in patent US20260224524A1, “A PHARMACEUTICAL COMPOSITION TARGETING MUTANT P53 AND HER2” (DR DOZO LABORATORIES, priority 2023, published 2026).
Like-named read-outs stand apart in the source and are kept apart here.

Experiments:
A549 cell line [1] = assay: Cell viability test using trypan blue exclusion method against A549; assay type: cell-based; settings: Homo sapiens, 24 h
Method: For cytotoxicity studies, Test sample was considered as 100% stock and serial two-fold dilutions were prepared from 10% to 0.156% using F-12K plain media for treatment. 10 mM stock of Standard Doxorubicin was diluted from 100 μM to 1.56 μM using F-12K plain media for treatment.
(§1) A549 cells were cultured in F-12K medium with appropriate supplements in a humidified atmosphere of 5% CO2 at 37° C. until confluent. The viability of the cells was checked using conventional hemocytometer. Appropriate cell density per ml of media was prepared and seeded in a 96 well plate and incubated for 24 h at 37° C. with 5% CO2 to assess the cell viability.
• 1. The cell count was adjusted to 5×10^5 cells/ml using complete media. To each well of the 96 well microtiter plate, 100 μl of the diluted cell suspension (50,000 cells/well) was added and incubated for 24 h at 37° C. in 5% CO2 atmosphere. • 2. After 24 h, the cells were treated with various concentrations of test compound and incubated at 37° C. for 24 h in 5% CO2 atmosphere. • 3. After incubation the test solutions in the wells were discarded. • 4. Cells were trypsinized and 20 μl of cell suspension was taken for viability counting. • 5. To this 20 μl of trypan blue dye was added and mixed well. • 6. The mixture was then loaded to haemocytometer at the end of the notch with the help of pipette. • 7. Haemocytometer was kept under the inverted microscope and scored in each quadrant. • 8. Cell counting wad done according to Neubauer's rules and noted. Percentage cell viability was calculated for the obtained data using below given formulae.
Viable cells=Average viable cells*2*10^3 cells/100 μl
% Viability=Viable cells/Total cells×100

A549 cell line [2] = assay: Cytotoxicity MTT assay against A549; assay type: cell-based; settings: Homo sapiens; for inhibition at 1.563 µM / inhibition at 3.125 µM / inhibition at 6.25 µM / inhibition at 12.5 µM / inhibition at 25 µM / inhibition at 50 µM / inhibition at 100 µM: A549, A549
Method: For cytotoxicity studies, Test sample was considered as 100% stock and serial two-fold dilutions were prepared from 10% to 0.156% using F-12K plain media for treatment. 10 mM stock of Standard Doxorubicin was diluted from 100 μM to […] using F-12K plain media for treatment.
as §1
• 1. The cell count was adjusted to 5×10^5 cells/ml using complete media. To each well of the 96 well microtiter plate, 100 μl of the diluted cell suspension (50,000 cells/well) was added and incubated for 24 h at 37° C. in 5% CO2 atmosphere. • 2. After 24 h, the cells were treated with various concentrations of test compound and incubated at 37° C. for 24 h in 5% CO2 atmosphere. • 3. After incubation, the test solutions in the wells were discarded and 100 μl of MTT (5 mg/10 ml of MTT in PBS) was added to each well. The plates were incubated for 4 h at 37° C. in 5% CO2 atmosphere. • 4. The supernatants were removed and 100 μl of DMSO was added and the plates were gently shaken to solubilize the formed formazan. The absorbance was measured using a microplate reader at a wavelength of 590 nm. • 5.
% Inhibition=(OD of sample−OD of Control/OD of Control)×100

[3] = read-out: % Mean Cell Inhibition

Question: With `COc1cccc2c1C(=O)c1c(O)c3c(c(O)c1C2=O)C[C@@](O)(C(=O)CO)C[C@@H]3O[C@H]1C[C@H](N)[C@H](O)[C@H](C)O1` [Doxorubicin] as the compound, how does the viability at 1.563 µM (A549 cell line [1]; 1.563 μM) read?
Answer: Its viability at 1.563 µM is 85.5%.

Question: What about the viability at 3.125 µM (A549 cell line [1]; 3.125 μM) of the same compound?
Answer: Its viability at 3.125 µM is 74.5%.

Question: What about the viability at 6.25 µM (A549 cell line [1]; 6.25 μM) of the same compound?
Answer: The viability at 6.25 µM was 66.1%.

Question: What about the viability at 12.5 µM (A549 cell line [1]; 12.5 μM) of the same compound?
Answer: Its viability at 12.5 µM is 51.6%.

Question: What about the viability at 25 µM (A549 cell line [1]; 25 μM) of the same compound?
Answer: The viability at 25 µM was 36.5%.

Question: And the viability at 50 µM (A549 cell line [1]; 50 μM)?
Answer: Its viability at 50 µM is 26.2%.

Question: And the viability at 100 µM (A549 cell line [1]; 100 μM)?
Answer: The viability at 100 µM was 11.1%.

Question: And the inhibition at 1.563 µM (A549 cell line [2]; n = 1, read-out: % Inhibition)?
Answer: Its inhibition at 1.563 µM is 17.3%.

Question: What about the inhibition at 1.563 µM (A549 cell line [2]; n = 2, read-out: % Inhibition) of the same compound?
Answer: The inhibition at 1.563 µM was 19.6%.

Question: And the inhibition at 1.563 µM (A549 cell line [2]; n = 3, read-out: % Inhibition)?
Answer: Its inhibition at 1.563 µM is 18.4%.

Question: And the inhibition at 1.563 µM (A549 cell line [2]; [3])?
Answer: Its inhibition at 1.563 µM is 18.4%.

Question: What about the inhibition at 3.125 µM (A549 cell line [2]; n = 1, read-out: % Inhibition) of the same compound?
Answer: Its inhibition at 3.125 µM is 27.8%.

Question: And the inhibition at 3.125 µM (A549 cell line [2]; n = 2, read-out: % Inhibition)?
Answer: The inhibition at 3.125 µM was 25.6%.

Question: What about the inhibition at 3.125 µM (A549 cell line [2]; n = 3, read-out: % Inhibition) of the same compound?
Answer: The inhibition at 3.125 µM was 24.7%.

Question: What about the inhibition at 3.125 µM (A549 cell line [2]; [3]) of the same compound?
Answer: The inhibition at 3.125 µM was 26.1%.

Question: What about the inhibition at 6.25 µM (A549 cell line [2]; n = 1, read-out: % Inhibition) of the same compound?
Answer: The inhibition at 6.25 µM was 36.3%.

Question: And the inhibition at 6.25 µM (A549 cell line [2]; n = 2, read-out: % Inhibition)?
Answer: The inhibition at 6.25 µM was 35.9%.

Question: And the inhibition at 6.25 µM (A549 cell line [2]; n = 3, read-out: % Inhibition)?
Answer: Its inhibition at 6.25 µM is 37.4%.

Question: What about the inhibition at 6.25 µM (A549 cell line [2]; [3]) of the same compound?
Answer: The inhibition at 6.25 µM was 36.5%.

Question: What about the inhibition at 12.5 µM (A549 cell line [2]; n = 1, read-out: % Inhibition) of the same compound?
Answer: Its inhibition at 12.5 µM is 45.4%.

Question: What about the inhibition at 12.5 µM (A549 cell line [2]; n = 2, read-out: % Inhibition) of the same compound?
Answer: The inhibition at 12.5 µM was 44.2%.

Question: What about the inhibition at 12.5 µM (A549 cell line [2]; n = 3, read-out: % Inhibition) of the same compound?
Answer: Its inhibition at 12.5 µM is 45.8%.

Question: And the inhibition at 12.5 µM (A549 cell line [2]; [3])?
Answer: Its inhibition at 12.5 µM is 45.1%.

Question: And the inhibition at 25 µM (A549 cell line [2]; n = 1, read-out: % Inhibition)?
Answer: Its inhibition at 25 µM is 64.5%.

Question: And the inhibition at 25 µM (A549 cell line [2]; n = 2, read-out: % Inhibition)?
Answer: Its inhibition at 25 µM is 65.2%.

Question: And the inhibition at 25 µM (A549 cell line [2]; n = 3, read-out: % Inhibition)?
Answer: Its inhibition at 25 µM is 65.2%.

Question: What about the inhibition at 25 µM (A549 cell line [2]; [3]) of the same compound?
Answer: The inhibition at 25 µM was 65%.

Question: And the inhibition at 50 µM (A549 cell line [2]; n = 1, read-out: % Inhibition)?
Answer: Its inhibition at 50 µM is 75.5%.

Question: What about the inhibition at 50 µM (A549 cell line [2]; n = 2, read-out: % Inhibition) of the same compound?
Answer: The inhibition at 50 µM was 74.4%.

Question: What about the inhibition at 50 µM (A549 cell line [2]; n = 3, read-out: % Inhibition) of the same compound?
Answer: Its inhibition at 50 µM is 78.2%.

Question: What about the inhibition at 50 µM (A549 cell line [2]; [3]) of the same compound?
Answer: The inhibition at 50 µM was 76%.

Question: What about the inhibition at 100 µM (A549 cell line [2]; n = 1, read-out: % Inhibition) of the same compound?
Answer: Its inhibition at 100 µM is 87.9%.

Question: And the inhibition at 100 µM (A549 cell line [2]; n = 2, read-out: % Inhibition)?
Answer: The inhibition at 100 µM was 90.3%.

Question: And the inhibition at 100 µM (A549 cell line [2]; n = 3, read-out: % Inhibition)?
Answer: The inhibition at 100 µM was 89.2%.

Question: And the inhibition at 100 µM (A549 cell line [2]; [3])?
Answer: Its inhibition at 100 µM is 89.2%.

Question: And the IC50 (A549 cell line [2]; A549, MTT, 24 h)?
Answer: Its IC50 is 20.3 µM.
